Results on three compounds are retold here after patent publication US20060079497A1, “Lavendamycin analogues and methods of synthesizing and using lavendamycin analogues” (Ball State University, priority 2004, published 2006).

A short description of data set [1]: Cytotoxicity assay (MTT), human lymphocytic cell lines, pooled data. Type of data set: cell-based. The conditions noted are these: human lymphocytic cell lines CCRF-CEM and H-9, pooled data, H-9 and CEM inhibited by 50%, read-out: Mean CC50 (Human Cell Lines) ± SEM (no. of expts). On the procedure: (§1) Normal murine spleen cells were washed in HBSS, cultured at 2.5×10^6 or 5×10^6 cells per mL in RPMI 1640 (with Hepes) complete medium with 2 mM-L-glutamine, 1 mM sodium pyruvate, 0.05 mM β-mercaptoethanol, penicillin, streptomycin, and amphotericin B with 10% fetal calf serum and Concanavalin A (ConA) at 2.5 μg/mL in a 96-well microtiter plate. A range of diluted analogs were added to triplicate culture wells and the cells were incubated at 37° C. in 5% CO2. Wells containing cells, media and ConA were used as controls. Forty-eight hours post incubation, 20 μL of the vital dye MTT (3-[4,5-Dimethylthiazol-2-yl]-2,5-diphenyltetrazolium bromide; thiazolyl blue) at 5 mg/mL was added to each well and the cultures re-incubated for 4-6 hours. Following centrifugation, the supernatants were decanted and the stained cells were resuspended in 100 μL of 0.4% HCl acidified isopropanol. The optical densities of each well were read at 600 nm using a Cambridge Technologies series 700 microplate reader. The human lymphocytic cell lines CCRF-CEM (ATCC: HTB 176) and H-9 (ATCC: CCL 119) were subcultured from recently cultured cells grown in complete RPMI 1640 medium as described above but without the β-mercaptoethanol and ConA at 6.25×10^5 and 2×10^6 per mL in a 96 well culture plate. These cell numbers represented log phase and early stationary phase of the freshly cultured cells. As these cell lines rapidly reproduce without mitogenic stimulation, Con A was not used. A range of analogues or media alone was added in triplicate to the cultures and the cultures incubated, pulsed with MTT, harvested and their growth estimated as described above for the murine cultures. The CC50 or the concentration of drug which inhibited cell growth as estimated by MTT formazan production to 50% of that of untreated control cells was determined by linear interpolation for each lavendamycin analog.

Data set [2] can be described thus: Cytotoxicity assay (MTT), normal murine spleen cells stimulated with concanavalin A. Type of data set: cell-based. The conditions noted are these: normal murine spleen cells stimulated with concanavalin A; normal mouse spleen stimulated with concanavalin A inhibited by 50%; read-out: Mean CC50 (Normal Mouse Spleen) ± SEM (no. of expts). How it is done:
as §1

The target in another data set is T1, HIV-RT (Human immunodeficiency virus type 1 group M subtype B, UniProt P04585).
T1 construct: 1 unit/mL of HIV-RT (Worthington Biochemical Corp., Freehold, N.J.); purchased Worthington Biochemical Corp., Freehold, N.J
Description: Checkerboard combination of lavendamycin analogs with AZT-triphosphate in HIV-RT enzyme assay (Chou and Talalay). Type of data set: biochemical. How it is done:
The results were analyzed by the method of Chou and Talalay based on the median-effect principle and represented by combination indices (CI) determined for each of the two drug combinations (e.g., see: Chou, T. C.; Talalay, P. “Quantitative Analysis of Dose-Effect Relationships: The Combined Effects of Multiple Drugs or Enzyme Inhibitors,” Adv. Enzyme Regul., 1984, 22, 27-65; and Chou, J.; Chou, T. C. “Dose-Effect Analysis with Microcomputers: Quantitation of ED50, LD50, Synergism, Antagonism, Low-Dose Risk, Receptor-Ligand Binding and Enzyme Kinetics,” In: A computer Software for IBM-PC and Manual, Cambridge, UK, Elsevier-Biosoft, 1987). This method involves the plotting of dose-effect curves for each agent and for each of the different combinations of the agents. The slope of the median-effect plot, which signifies the shape of the dose-effect curve, and the x intercept of the plot, which signifies the potency of each compound alone and each combination, were then used for a computerized calculation of a combination index.
The assay procedure described below is adapted from Okada et al. (Okada, H.; Mukai, H.; Inouye, Y; Nakamura, S. “Biological Properties of Streptonigrin Derivatives II. Inhibition of Reverse Transcriptase Activity,” J. Antibiot., 1986, 39, 306-308). The lavendamycin analogs were initially dissolved in DMSO at a concentration of 1 mg/mL. Occasionally, mild sonication and heat were used to dissolve the less soluble compounds. The dissolved analogs were then serially diluted in distilled water to achieve concentrations in the final reaction mixture ranging from 0.5-15 μM. In addition to the lavendamycin analogs, the final reaction mixture contained 100 mM Tris-HCl (pH 8.0), 5 mM MgCl2, 5 mM dithiothreitol, 60 mM NaCl, 0.2 mM [^3H] thymidine triphosphate(5 μCi well), 4 μg/mL poly (rA)-oligo(dT)12-18 (Amersham Pharmacia Biotech, Piscataway, N.J.) and 1 unit/mL of HIV-RT (Worthington Biochemical Corp., Freehold, N.J.) in a total volume of 300 μL. For each assay, the reaction mixture containing 8× buffer, double distilled H2O, ^3HTTP, template-primer and HIV-RT was pre-mixed in a 15-mL sterile tube in quantities required for the particular experiment. After adding the enzyme, the reaction mixture was mixed and kept on ice. The inhibitors, either AZT(Moravek Biochemicals, Brea, Calif.), analogs or both were added to appropriate wells in a 24 well microtiter plate and ddH2O was added to each well to bring the volume of all test wells to 100 μL. Two hundred μL of the chilled reaction mixture was then added to each of the test wells, mixed, and incubated for 1 hr at 37° C. Several control wells with no inhibitors were included on each test plate. After stopping the reactions with 25 μL 0.1 M EDTA, triplicate samples of 15 μL from each test well were spotted on DE81 ion exchange filter paper squares (Whatman Paper, Maidstone, England). After drying, each filter was washed for 10 minutes three times with 5% TCA-NHPO4, three times with 0.6M NaCl-[…] Na Citrate, one time with ddH2O and one time with 95% ethanol. After drying the individual filter papers were added to 5 mL Scintiverse E (Fisher Scientific, Chicago, Ill.) scintillation fluid and the amount of 3H-TTP uptake measured as counts per minute on a Beckman liquid scintillation counter. […] The results were then analyzed using Calcusyn, a windows software program for dose effect analysis designed by T. -C. Chou and M. P. Hayball and published by Biosoft® (UK).

Setting [3] is: analogue 0.25 μM + AZT 0.007 μM, Trial 1.
[4] abbreviates: analogue 0.25 μM + AZT 0.007 μM, Trial 2.
The mark [5] stands for this setting: analogue 0.25 μM + AZT 0.01 μM, Trial 1.
[6] abbreviates: analogue 0.25 μM + AZT 0.01 μM, Trial 2.
[7] abbreviates: analogue 0.25 μM + AZT 0.02 μM, Trial 1.
[8] abbreviates: analogue 0.25 μM + AZT 0.02 μM, Trial 2.
Setting [9] is: analogue 0.5 μM + AZT 0.007 μM, Trial 1.
Where [10] appears, read: analogue 0.5 μM + AZT 0.007 μM, Trial 2.
[11] abbreviates: analogue 0.5 μM + AZT 0.01 μM, Trial 1.
[12] abbreviates: analogue 0.5 μM + AZT 0.01 μM, Trial 2.
Setting [13] is: analogue 0.5 μM + AZT 0.02 μM, Trial 1.
The mark [14] stands for this setting: analogue 0.5 μM + AZT 0.02 μM, Trial 2.
[15] abbreviates: analogue 0.75 μM + AZT 0.01 μM, Trial 1.
[16] abbreviates: analogue 0.75 μM + AZT 0.01 μM, Trial 2.
[17] abbreviates: analogue 0.75 μM + AZT 0.02 μM, Trial 1.
Where [18] appears, read: analogue 0.75 μM + AZT 0.02 μM, Trial 2.
The mark [19] stands for this setting: analogue 1.5 μM + AZT 0.007 μM, Trial 1.
The mark [20] stands for this setting: analogue 1.5 μM + AZT 0.007 μM, Trial 2.
Setting [21] is: analogue 1.5 μM + AZT 0.01 μM, Trial 1.
The mark [22] stands for this setting: analogue 1.5 μM + AZT 0.01 μM, Trial 2.
Where [23] appears, read: analogue 1.5 μM + AZT 0.02 μM, Trial 1.
Setting [24] is: analogue 1.5 μM + AZT 0.02 μM, Trial 2.
Setting [25] is: analogue 0.75 μM + AZT 0.007 μM, Trial 1.
Setting [26] is: analogue 0.75 μM + AZT 0.007 μM, Trial 2.

Read-outs that look alike come from different tables or passages of the source.

`CC(=O)NC1=CC(=O)c2ccc(-c3nc(C(=O)O)cc4c3[nH]c3ccccc34)nc2C1=O` [Compound 18, 7-N-Acetyldemethyllavendamycin]: the CC50 at 48 h in data set [1] turned out to be 81 ± 35 µM; in data set [2], 47 ± 8.5 µM. Moreover, the Combination index on HIV-RT stood at 0.66; at HIV-RT (setting [3]), 0.39; on HIV-RT (setting [4]), 0.37; at HIV-RT (setting [5]) it was 0.44; at HIV-RT (setting [6]), 0.45; on HIV-RT (setting [7]) it was 0.59. Besides, the Combination index is given as 0.60 at HIV-RT (setting [8]); 0.40 on HIV-RT (setting [9]); 0.42 on HIV-RT (setting [10]); 0.51 on HIV-RT (setting [11]); 0.50 on HIV-RT (setting [12]); 0.97 at HIV-RT (setting [13]). The Combination index at HIV-RT (setting [14]) stood at 0.98; at HIV-RT (setting [15]), 0.59; at HIV-RT (setting [16]) it was 0.57; at HIV-RT (setting [17]), 0.95; at HIV-RT (setting [18]), 0.97; on HIV-RT (setting [19]) it was 1.00. Besides, the Combination index at HIV-RT (setting [20]) stood at 0.94; at HIV-RT (setting [21]) it was 0.90; at HIV-RT (setting [22]) it was 0.82; at HIV-RT (setting [23]) it was 2.00; on HIV-RT (setting [24]) it was 2.20. Moreover, the “combined effect with AZT-TP” value on HIV-RT (analogue 1.5 μM together with AZT-TP 0.02 μM) is “antagonism”.
With `CC(=O)NC1=CC(=O)c2ccc(-c3nc(C(N)=O)cc4c3[nH]c3ccccc34)nc2C1=O` [Compound 16, 7-N-Acetyldemethyllavendamycin Amide], the CC50 at 48 h stood at 95 ± 45 µM in data set [1] and 50 ± 7 µM in data set [2]. The Combination index turned out to be 0.82 on HIV-RT (setting [3]); 0.80 on HIV-RT (setting [4]); 0.85 at HIV-RT (setting [5]); 1.18 on HIV-RT (setting [6]); 0.67 at HIV-RT (setting [7]); 0.75 at HIV-RT (setting [8]). In addition, the Combination index at HIV-RT (setting [9]) was 0.54; on HIV-RT (setting [10]), 0.65; at HIV-RT (setting [11]), 0.87; on HIV-RT (setting [12]), 0.70; on HIV-RT (setting [13]) it was 0.58; on HIV-RT (setting [14]) it was 0.60. Besides, the Combination index was 1.50 at HIV-RT (setting [25]); 1.61 on HIV-RT (setting [26]); 1.0 at HIV-RT (setting [15]); 1.20 on HIV-RT (setting [16]); 1.10 at HIV-RT (setting [17]); 1.10 on HIV-RT (setting [18]). In addition, the Combination index was determined as 0.66 on HIV-RT (setting [19]); 0.67 on HIV-RT (setting [20]); 1.0 on HIV-RT (setting [21]); 1.0 on HIV-RT (setting [22]); 1.00 on HIV-RT (setting [23]); 1.00 on HIV-RT (setting [24]).
Consider `CC(=O)NC1=CC(=O)c2ccc(-c3nc(C(=O)OCCOP(=O)(O)O)cc4c3[nH]c3ccccc34)nc2C1=O` [Compound 19], for which the CC50 at 48 h in data set [1] was 27 ± 3 µM; in data set [2], 29 ± 5 µM. Besides, the Combination index amounted to 0.47 on HIV-RT (setting [25]); 0.68 at HIV-RT (setting [26]); 0.64 at HIV-RT (setting [15]); 1.04 on HIV-RT (setting [16]); 0.49 at HIV-RT (setting [19]); 0.81 on HIV-RT (setting [20]). The Combination index on HIV-RT (setting [21]) was determined as 0.69; on HIV-RT (setting [22]), 0.69; at HIV-RT (analogue 3 μM + AZT 0.007 μM, Trial 1) it was 0.49; at HIV-RT (analogue 3 μM + AZT 0.007 μM, Trial 2), 0.79; on HIV-RT (analogue 3 μM + AZT 0.01 μM, Trial 1), 0.28; at HIV-RT (analogue 3 μM + AZT 0.01 μM, Trial 2), 0.56. Also, the Combination index on HIV-RT (analogue 6 μM + AZT 0.007 μM, Trial 1) is reported as 0.32; at HIV-RT (analogue 6 μM + AZT 0.007 μM, Trial 2) it was 0.60; on HIV-RT (analogue 6 μM + AZT 0.01 μM, Trial 1), 0.28; at HIV-RT (analogue 6 μM + AZT 0.01 μM, Trial 2), 0.75.

In general, CC50 refers to the concentration that lowers cell viability or growth by half.
